Measurements reported in patent US6747009B2, “Peptidomimetic glutathione analogs” (Universiteit Leiden, priority 2002, dated 2004).
Numbered stars: 1 amine (or outer) side, 2 acyl side, 3 side chain; on linkers, the order of the positions; unused ones are H or OH. Square brackets hold non-standard residues; d marks the D form. Peptide text beside a SMILES is read from it. * marks the point of attachment. ξ: configuration not given here. γGlu = O=C(O)[C@H](CCC(=O)[*:2])N[*:1]; ξPhg = NC(C(=O)O)c1ccccc1; Bn = c1ccc(C*)cc1

Experiments:
[1] = system: rat liver cytosolic GSTs (S100); test: Inhibition of rat liver cytosolic GSTs (S100), CDNB conjugation; assay type: biochemical; conditions: S100, 1 mM GSH, 1 mM CDNB, pH 6.5, six inhibitor concentrations
Method: Inhibition of GST mediated CDNB-conjugation was tested at pH=6.5, in the presence of non-limiting concentrations of GSH (1 mM) and CDNB (1 mM). The shown data are averages of three separate determinations. For clarity, error-bars were not included. […] Open markers with dotted lines indicate γGT sensitive compounds, closed markers with closed lines are γGT stabilized structures.
Freshly isolated rat livers were emulsified in 0.1M KCl using a Potter-Elvehjem homogeniser. After initial centrifugation for 30 minutes at 9000 g, the resulting supernatant was subjected to a second centrifugation for 75 minutes at 10^5 g. The cytosolic protein containing supernatant (S100) was used for the GST inhibition experiments. GST inhibition experiments were performed. All solutions were kept on ice until use. Various concentrations of the inhibitions were incubated at 37° C. with rat liver cytosol (1 μl, containing […] of total protein) in sodium-phosphate buffer, pH 6.5, supplemented with 0.1 mM EDTA and 1 mM GSH. Reaction was started by adding 4 μL CDNB in ethanol (final concentration=1 mM, maximal ethanol content=2% v/v). Formation of the GS-CDNB conjugate was followed at 340 nm for 5 minutes. Initial reaction velocities were corrected for the spontaneous (not GST catalyzed) reaction rates. Inhibition was determined as percentage of the non-inhibited reaction rate. Experiments were performed three times with duplicate measurements.
GST inhibition was tested at six concentrations of the GS-EA mimics.

human GSTM1-1 = biological target: T1, human GSTM1-1 (Homo sapiens, UniProt P09488); test: GST inhibition assay (CDNB conjugation), Ki determination; assay type: biochemical; conditions: human recombinant GSTM1-1; ± SD; 50 μM inhibitor, 50 μM-4 mM GSH, 1 mM CDNB, pH 6.5
T1 construct: purchased PanVers Corporation (Madison, Wis., USA)
T1 sequence (P09488 2-218 limits assumed): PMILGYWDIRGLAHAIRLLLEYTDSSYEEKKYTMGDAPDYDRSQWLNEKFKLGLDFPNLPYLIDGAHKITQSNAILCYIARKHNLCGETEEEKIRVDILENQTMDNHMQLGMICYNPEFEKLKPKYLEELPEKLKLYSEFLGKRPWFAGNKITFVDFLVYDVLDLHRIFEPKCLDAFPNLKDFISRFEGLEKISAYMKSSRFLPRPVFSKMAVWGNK
Method: (§1) Human recombinant GST isoenzymes A1-1, M1-1 and P1-1 were used for the GST inhibition assays. Experiments were performed according to Habig et al; (1974), J. Biol. Chem. 249, 7130-7139, modified for a 96-wells plate-reader assay. The purified human GST isoenzymes (10-20 ng/ml) were incubated with or without inhibitor (50 μM) in the presence of 8 different concentrations (50 μM-4 mM) GSH at 37° C. in 0.1 M potassium phosphate buffer pH 6.5/1 mM EDTA. The reaction was initiated by addition of CDNB in ethanol (final concentration 1 mM, 1% ethanol in assay mix), after which the formation of GS-DNB was spectrophotometrically monitored at 340 nm. Reaction rates were corrected for the non-enzymatic conjugate formation. Kt values (table 1) were determined using the Km, app method according to Kakkar et al. (1999), Drug Metab. Dispos. 27, 756-762; Kakkar et al. (2000), J. Pharmacol. Exp. Ther. 293, 861-869. Experiments were performed three times with quadruple measurements.

human GSTA1-1 = biological target: T2, human GSTA1-1 (Homo sapiens, UniProt P08263); test: as above; assay type: biochemical; conditions: human recombinant GSTA1-1; ± SD; 50 μM inhibitor, 50 μM-4 mM GSH, 1 mM CDNB, pH 6.5
T2 construct: purchased PanVers Corporation (Madison, Wis., USA)
T2 sequence (P08263 1-222): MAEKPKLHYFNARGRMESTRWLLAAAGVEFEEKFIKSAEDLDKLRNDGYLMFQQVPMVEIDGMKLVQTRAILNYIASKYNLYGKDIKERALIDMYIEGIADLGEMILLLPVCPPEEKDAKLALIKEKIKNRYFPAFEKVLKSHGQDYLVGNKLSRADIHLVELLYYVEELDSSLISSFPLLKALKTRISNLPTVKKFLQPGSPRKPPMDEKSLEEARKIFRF
Method: as §1

human GSTP1-1 = biological target: T3, human GSTP1-1 (Homo sapiens, UniProt P09211); test: GST inhibition assay (CDNB conjugation), Ki and % inhibition; assay type: biochemical; conditions: for inhibition at 50 µM: 1 mM GSH, 1 mM CDNB, 50 μM inhibitor, relative to non-inhibited rate
T3 construct: purchased PanVers Corporation (Madison, Wis., USA)
Method: as §1

VCREMS cells = test: Modulation of thiotepa cytotoxicity (cell proliferation by DNA content); assay type: cell-based; conditions: read-out: IC50 value of thiotepa, No Inh
Method: (§2) Cells (MCF7, VCREMS, 3 MTLn3/neo clones and 3 MTLn3/GSTP1-1 clones) were seeded at 10^4 cells/well in 24-wells polyethylene culture dishes. […] Various concentrations (3 μM-10 mM) of thiotepa (in serum-free medium) were added. After 4 hrs at 37° C., cells were washed twice with PBS, and subsequently incubated for 72 hours in culture medium (in absence of inhibitor). The cells were then rinsed once with BPS and lysed by repeated freeze-thaw cycles in 200 μl water, followed by homogenization on a rotary shaker. […] Stained DNA was measured by spectrofluorometry (excitation: 360 nm, emission 465 nm). A calibration curve of calf thymus DNA was used to determine total DNA quantities. Growth curves were calculated using the IC50 module of the enzyme kinetics program Grafit (version 3.0, Erithacus Software Ltd.).

MTLn3/Neo cells = test: as above; assay type: cell-based; conditions: read-out: IC50 value of thiotepa, No Inh
Method: as §2

MCF7 cells = test: as above; assay type: cell-based; conditions: Homo sapiens, MCF7, read-out: IC50 value of thiotepa, No Inh
Method: as §2

MTLn3/GSTπ cells = test: as above; assay type: cell-based; conditions: read-out: IC50 value of thiotepa, No Inh
Method: as §2

[2] = system: bovine kidney γ-glutamyl transpeptidase; test: Stability towards γ-glutamyl transpeptidase (RP-HPLC disappearance of parent); assay type: in vitro ADME; conditions: pH 7.4
Method: Peptide isosteres were incubated with 0.25 mg/ml bovine γ-glutamyltranspeptidase in 0.1M Tris-HCl buffer pH=7.4. At the appropriate time-point a sample (100 μL) was taken, heat inactivated and stored on ice until HPLC analysis. Disappearance of the indicated compounds was determined by RP-HPLC. Open markers indicate γGT sensitive compounds, closed markers are γGT stabilized.
The rate of degradation was determined by incubating 250 μM of GluPhg-Benzyl, RedPhg-Benzyl and UtPhg-Benzyl at 37° C. with 0.25 mg/ml bovine kidney γ-glutamyl transpeptidase in 0.1 M Tri-HCl buffer, pH 7.4, supplemented with 0.1 mM EDTA. At selected time-intervals, a 100 μL sample was taken, heat-inactivated, and stored on ice until HPLC-analysis. Analysis was performed by RP-HPLC on an Altech Platinum C18 column, using 50 mM ammonium acetate buffer pH 3.8, supplemented with 10-20% acetonitrile (optimized for the various peptide analogues) as eluent. Disappearance of the parent peak was determined by UV absorbency at […]. Remaining percentage of the parent compounds was determined as ratio of peak areas relative to the initial (t=0min) value.
The rate of degradation was determined by incubating 250 μM of the GS-EA analogues at 37° C. with 0.25 mg/ml bovine kidney γ-glutamyltranspeptidase in 0.1M Tris-HCl buffer, pH=7.4, supplemented with 0.1mM EDTA. At selected time-intervals, a 100 μL sample was taken, heat-inactivated, and stored on ice until HPLC-analysis. Analysis was performed by RP-HPLC on an Alltech Platinum C18 column, using 50mM ammonium acetate buffer pH=3.8, supplemented with 10-20% acetonitrile (optimized for the various peptide analogues) as eluent. Disappearance of the […] peak and emergence of the corresponding dipeptide-EA conjugate was detected by UV absorbency at 270 nm. Remaining percentage of the parent compounds was determined as ratio of peak areas relative to the initial (t=0 min) value. Results were corrected for non-peptidase mediated degradation of the ethacrynic acid conjugates.

JNK in MTLn3 cells = test: JNK activation (phospho-JNK immunoblot); assay type: cell-based; conditions: MTLn3/Neo and MTLn3/GSTπ; 50 μM Et2-RP-Bzl, Et2-UrP-Bzl or 20 μM TER199; 8 hours
Method: Confluent monolayers of VCREMS, MTLn3/Neo (3 clones) and MTLn3/GSTπ (3 clones) cells in 12-well culture dishes were exposed for 8 or 16 hours to 50 μM of Et2-RP-Bzl, Et2-UrP-Bzl or 20 μM TER199 (all di-ethyl esters) in full medium at 37° C. Cells were then washed and subsequently scraped in ice-cold PBS. For MTLn3 cells, suspensions of the three different neo and three different GSTπ clones were combined. After centrifugation (10 min, 250 g, 4° C.), the cells were lysed by ultrasonication in cold TSB (10 mM Tris, 250 mM sucrose, 1 mM EGTA, pH 7.4), containing protease inhibitors (50 mM Na3VO4, 10 μg/ml leupeptin, 10 μg/ml pepstain, 1 mM phenylmethylsulfonylfuloride). Protein concentration was determined using the Bradford protein assay, using IgG as a standard.
For GSTπ blotting, non-reducing and non-denaturing conditions were used to keep GSTP in its original (homodimer) state. JNK blots were subjected to standard Western blotting sample pre-treatment protocols. Twenty micrograms of total cellular protein was separated by SDS-polyacrylamide gel electrophoresis and subsequently transferred to polyvinylidene difluoride membrane (Millipore). […] Active JNK was detected by an alkaline phosphatase coupled goat antibody, which was visualized with the Tropix kit (PerkinElmer Life Sciences).

[3] = 250 μM compound, 0.25 mg/ml bovine kidney γGT, 37° C.

T3 sequence (P09211 2-210 limits assumed): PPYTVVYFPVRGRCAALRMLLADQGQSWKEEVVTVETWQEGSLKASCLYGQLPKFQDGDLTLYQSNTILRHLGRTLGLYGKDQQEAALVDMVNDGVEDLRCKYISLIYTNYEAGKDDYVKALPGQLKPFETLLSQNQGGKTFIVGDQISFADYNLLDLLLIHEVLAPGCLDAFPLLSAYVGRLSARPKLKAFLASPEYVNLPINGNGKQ

## CN(C(=O)CC[C@H](N)C(=O)O)[C@@H](CS)C(=O)NCC(=O)O [III, γ-Glu[MeCys-Gly-OH]—OH]
[1]
  inhibition of rat liver cytosolic GSTs (in words): a decrease in inhibition was seen

## N[C@@H](CCCN[C@@H](CSCc1ccccc1)C(=O)NC(C(=O)O)c1ccccc1)C(=O)O (stereo partly shown) [RedPhg-Benzyl (II)]
Human GSTM1-1
  Ki: 29 ± 6 µM
Human GSTA1-1
  Ki: 55 ± 11 µM
Human GSTP1-1
  Ki: 6 ± 3 µM
  inhibition at 50 µM: 81%

## H-Glo[Cys(EA)-Gly-OH]—OH [VI]
[1]
  inhibition of rat liver cytosolic GSTs (in words): efficient γGT stable inhibitors

## S=P(N1CC1)(N1CC1)N1CC1 [thiotepa]
VCREMS cells
  IC50: 2840 ± 1100 µM
MTLn3/Neo cells
  IC50: 164 ± 9 µM
MCF7 cells
  IC50: 699 ± 50 µM
MTLn3/GSTπ cells
  IC50: 219 ± 21 µM

## CCC(CSC[C@H](NC(=O)CC[C@H](N)C(=O)O)C(=O)NCC(=O)O)C(=O)c1ccc(OCC(=O)O)c(Cl)c1Cl (stereo partly shown) [I, γ-Glu[Cys(EA)-Gly-OH]—OH, reference compound]
[2]; [3]
  stability towards γGT (in words): cleaved rapidly
  time to complete degradation of the GSH backbone by γGT: ≤ 20 min

## H-Glu[Ψ(CH2NH)-Cys(EA)-Gly-OH]—OH [V]
[1]
  inhibition of rat liver cytosolic GSTs (in words): efficient γGT stable inhibitors

## N[C@@H](COC(=O)N[C@@H](CSCc1ccccc1)C(=O)NC(C(=O)O)c1ccccc1)C(=O)O (stereo partly shown) [UrPhg-Benzyl (III), H-Glo[Cys(Bzl)-Phg-OH]-OH]
Human GSTM1-1
  Ki: 16 ± 2 µM
Human GSTA1-1
  Ki: 29 ± 4 µM
Human GSTP1-1
  Ki: 3 ± 2 µM
  inhibition at 50 µM: 93%

## γ-Glu[Cys(EA)-Src-OH]—OH [II]
[1]
  inhibition of rat liver cytosolic GSTs (in words): comparable inhibition pattern to compound I
[2]
  t½ of γGT mediated hydrolysis: approximately equal to the half-life of GS-EA

## γ-Glu[2-amino-1-mercapto(S-EA)-6-hexanoic acid]-OH [IV]
[1]
  inhibition of rat liver cytosolic GSTs (in words): poor inhibitor of cytosolic GSTs
[2]; [3]
  stability towards γGT (in words): very sensitive towards γGT mediated cleavage

## N[C@@H](CCC(=O)N[C@@H](CSCc1ccccc1)C(=O)NC(C(=O)O)c1ccccc1)C(=O)O (stereo partly drawn) [GluPhg-Benzyl (I), γ-L-glutamyl-L-cysteinyl(benzyl)-D-phenylglycine, reference compound] (γGlu-Cys(Bn)-[ξPhg]-OH)
Human GSTM1-1
  Ki: 21 ± 4 µM
Human GSTA1-1
  Ki: 23 ± 6 µM
Human GSTP1-1
  Ki: 0.8 ± 0.3 µM

## CCOC(=O)[C@@H](N)CCC(=O)N[C@@H](CSCc1ccccc1)C(=O)N[C@@H](C(=O)OCC)c1ccccc1 [TER199]
JNK in MTLn3 cells
  phospho-JNK (JNK1, JNK2) formation: a small band appeared just below the 54 kDa active JNK2 band
